Data from ChEMBL document CHEMBL1124942, “[D-Pen2,D-Pen5]enkephalin analogues with increased affinity and selectivity for delta opioid receptors” (J Med Chem, 1990).

How the values were obtained:
Cavia porcellus = species: Cavia porcellus; assay: Inhibitory potency was evaluated using strips of guinea pig ileum (GPI) longitudinal muscle-myenteric plexus.; assay type: functional, organism-based
Mus musculus = species: Mus musculus; assay: Inhibitory potency was evaluated using electrically induced smooth muscle contractions of mouse vas deferens (MVD).; assay type: functional, organism-based

Compound	IC50 (Cavia porcellus) [nM]	IC50 (Mus musculus) [nM]
CC1(C)SSC(C)(C)[C@@H](NC(=O)[C@@H](N)Cc2ccc(O)cc2)C(=O)NCC(=O)N[C@@H](Cc2ccc(F)cc2)C(=O)N[C@H]1C(=O)O	5030	0.84
CC1(C)SSC(C)(C)[C@@H](NC(=O)[C@@H](N)Cc2ccc(O)cc2)C(=O)NCC(=O)N[C@@H](Cc2ccc(I)cc2)C(=O)N[C@H]1C(=O)O	46100	2.65
CC1(C)SSC(C)(C)[C@@H](NC(=O)[C@@H](N)Cc2ccc(O)cc2)C(=O)NCC(=O)N[C@@H](Cc2ccc(Br)cc2)C(=O)N[C@H]1C(=O)O	13400	1.5
CC1(C)SSC(C)(C)[C@@H](NC(=O)[C@@H](N)Cc2ccc(O)cc2)C(=O)NCC(=O)N[C@@H](Cc2ccc(Cl)cc2)C(=O)N[C@H]1C(=O)O	4830	0.89
